# In US20220213052A1, “INHIBITORS OF RNA-BINDING PROTEINS, COMPOSITIONS THEREOF, AND THERAPEUTIC USES THEROF” (The University of North Carolina at Chapel Hill, priority 2019, published 2022):
# Where a name gives a salt, the structure may show the parent alone. Read-outs that look alike come from different tables or passages of the source.
# Columns and labels:
# [1] = biological target: T1, full-length human HuR protein (Homo sapiens, UniProt Q15717); assay: FP-based binding of full length HuR to fluorescein-labeled target RNAs; conditions: 16 nt RNA oligo, 3′-fluorescein
# T1 construct: full-length human HuR protein was produced by the KU COBRE-PSF Protein Purification Group; made in house
# Method: FIG. 3 provides the results of a fluorescence polarization (FP)-based binding assay, illustrating that full length HuR binds to FITC-Bcl-2, Msi1, and XIAP RNA but not to scrambled oligo-FITC. The concentration of FITC-RNA used in the assay is 2 nM.
# (§1) A fluorescence polarization (FP)-based binding assay was utilized to assess the inhibition of HuR protein interaction with the ARE site of Msi1 mRNA (“HuR-Msi1^ARE”) by compounds of interest. Briefly, full-length human HuR protein was produced by the KU COBRE-PSF Protein Purification Group and Bcl2, Msi1 and XIAP mRNA sequences (16 nt) were designed based on literature precedent^23,24,31,32. Fluorescein labeled RNAs were purchased from Dharmacon with the following sequences: Msi1 RNA: 5′-[…]-3′-fluorescein; Bcl-2 RNA: 5′-[…]-3′-fluorescein; XIAP RNA: 5′-[…] UGUC-3′-fluorescein, and a 16-nt degenerative RNA with 3′-fluorescein label was used as a negative control.
# [2] = test system: colon cancer cell line SW480; assay: Cytotoxicity assay (WST-8), SW480; type: cell-based; conditions: Homo sapiens, 96 h incubation
# [3] = test system: colon cancer cell line HCT116 β/W; assay: Cytotoxicity assay (WST-8), HCT116 β/W; type: cell-based; conditions: Homo sapiens, HCT-116, 96 h incubation
# Method: (§2) The cytotoxicity of various compounds of the present technology in several cancer cell lines (pancreatic cancer cell line MIAPaCa-2, triple-negative breast cancer cell line MDA-MB-231, and colon cancer cell lines HCT116, HCT116 β/W, and RKO) was assessed by a cytotoxicity assay. Cells were seeded in 96-well culture plates (3,000-5,000 cells/well) and treated with titrated compounds in triplicate. After 96 h incubation, cell growth medium was removed and proliferation reagent WST-8 (Sigma) was added to each well and incubated at 37° C. for 1-3 h. Absorbance was then measured with a plate reader at 450 nm with correction at 650 nm. The results were expressed as the percentage of absorbance of treated wells versus that of vehicle control. IC50, the drug concentration causing 50% growth inhibition, was calculated via sigmoid curve fitting using GraphPad Prism 5.0. The results for those compounds tested against MIAPaCa-2 and MDA-MB-231 are provided in Table 1; the results for those compounds tested against colon cancer cell lines HCT116, HCT116 β/W, and RKO are provided in Table 3.
# [4] = test system: pancreatic cancer cell line MIAPaCa-2; assay: Cytotoxicity assay (WST-8), MIAPaCa-2; type: cell-based; conditions: Homo sapiens, MIA PaCa-2, 96 h incubation
# Method: as §2
# [5] = test system: colon cancer cell line RKO; assay: Cytotoxicity assay (WST-8), RKO; type: cell-based; conditions: 96 h incubation
# Method: as §2
# [6] = test system: colon cancer cell line HCT116; assay: Cytotoxicity assay (WST-8), HCT116; type: cell-based; conditions: Homo sapiens, HCT-116, 96 h incubation
# Method: as §2
# [7] = test system: triple-negative breast cancer cell line MDA-MB-231; assay: Cytotoxicity assay (WST-8), MDA-MB-231; type: cell-based; conditions: Homo sapiens, 96 h incubation
# Method: as §2
# Msi1 = Msi1 (Homo sapiens, UniProt O43347); assay: Msi1 FP assay; type: binding
# Method: (§3) With the FP assay of HuR-Msi1ARE binding, the inhibition of the HuR-Msi1ARE interaction by various compounds of the present technology was assessed. Similar FP assays for Musashi 2 (Msi2) and for RNA-binding protein Lin-28 homolog B (LIN28B) were also performed on various compounds of the present technology. The results of such assays for HuR are provided in Table 1 alongside the compound structures as well as ID numbers for ease of reference; the results of such assays for Msi1, Msi2, and LIN28B are provided in Table 2.
# [8] = biological target: T1, full-length human HuR protein; assay: FP assay of HuR-Msi1 ARE binding inhibition; conditions: HuR-Msi1 ARE interaction; read-out: HuR Ki via FP assay
# Text: as §1, §3
# [9] = biological target: T2, RNA-binding protein Lin-28 homolog B (LIN28B) (Homo sapiens, UniProt Q6ZN17); assay: LIN28B FP assay
# T2 sequence (Q6ZN17 1-250): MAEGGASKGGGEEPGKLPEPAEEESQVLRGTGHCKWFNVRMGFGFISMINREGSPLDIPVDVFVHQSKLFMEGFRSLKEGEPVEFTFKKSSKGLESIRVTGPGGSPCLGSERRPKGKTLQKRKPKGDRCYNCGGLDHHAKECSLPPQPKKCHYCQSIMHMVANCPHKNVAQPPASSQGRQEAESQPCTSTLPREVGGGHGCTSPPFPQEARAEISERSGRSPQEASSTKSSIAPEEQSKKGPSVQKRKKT
# Method: as §3
# Musashi 2 (Msi2) = Musashi 2 (Msi2) (Homo sapiens, UniProt Q96DH6); assay: Msi2 FP assay; type: binding
# Method: as §3
# [10] = biological target: T3, HuR-bound target mRNAs in MDA-MB-231 cells (Homo sapiens, UniProt Q15717); assay: Ribonucleoprotein immunoprecipitation (RNP-IP) pull-down assay; type: cell-based; conditions: 10 μM
# T3 construct: endogenous in cells; host or cells: MDA-MB-231
# Method: Pull-down Assay #2—Ribonuleoprotein Immunoprecipitation (RNP-IP): Cells with HuR overexpression were treated with compounds, then the cell cytoplasmic lysates collected using NE-PER Nuclear and Cytoplasmic Extraction Kit (Thermo Scientific), then the cell cytoplasmic lysates incubated with anti-HuR antibody, and subsequently Protein G agarose beads (from Roche) added to pull down HuR protein. The HuR-bound target mRNAs pulled down were measured by qRT-PCR using a reported method (Ji, Q., et al., MicroRNA miR-34 inhibits human pancreatic cancer tumor-initiating cells. PLoS One, 2009. 4(8): p. e6816, incorporated herein by reference). Mouse IgG will be used as negative control. Compounds of the present technology block the target mRNAs pulled down by HuR antibody.
# [11] = biological target: T4, HuR protein bound to ARE^Msi1-Biotin (Homo sapiens, UniProt Q15717); assay: RNA immunoprecipitation (RNA-IP) pull-down assay; type: cell-based; conditions: 20 μM
# T4 construct: endogenous in cells; cytoplasmic lysate
# Method: Pull-down Assay #1—RNA Immunoprecipitation (RNA-IP): Cells with HuR overexpression will be treated with compounds, then the cell cytoplasmic lysates were collected using NE-PER Nuclear and Cytoplasmic Extraction Kit (Thermo Scientific), and subsequently to the cell cytoplasmic lysates were added the biotinylated target ARE oligo from Msi1 mRNA (ARE^Msi1-Biotin). Following this, streptavidin beads were added to pull down HuR protein bound to ARE^Msi1-Biotin. Unlabeled target AREs used as positive control. Compounds of the present technology block the HuR pull-down by the biotinylated ARE oligo, illustrating inhibition of the HuR-mRNA interaction. For example, using 20 μM KH-39, 20 μM KH-56, and 10 μM KH-58 in such a RNA-IP assay provided the data illustrated in FIG. 5. The numbers immediately below the pictured bands in FIG. 5 are calculated by diving the band intensity of the particular sample by the band intensity of the DMSO treated sample (entry 3). […]
# MDA-MB-231 cells = assay: Matrigel invasion assay; type: cell-based; conditions: 10 μM; 24 h pretreatment, 20 h incubation
# Method: To examine the anti-metastatic effect of compounds of the present technology, an invasion assay using Matrigel Invasion Chambers coated with Matrigel Matrix was performed. To perform the assays, MDA-MB-231 cells pretreated with compounds for 24 hours are added to the chambers and then incubated for 20 hours. Cells that remained on the upper surface of the chamber are completely removed with a cotton swab. Cells that emigrated or invaded through the membrane/Matrigel to the bottom of the chamber were fixed and stained with 0.2% crystal violet and photographed.
# [12] = cell marked (RRM1), read-out: Msi2 (Ki) (RRM1)
# [13] = cell without (RRM1) mark, read-out: Msi2 (Ki)
# T1 sequence (Q15717 whole entry): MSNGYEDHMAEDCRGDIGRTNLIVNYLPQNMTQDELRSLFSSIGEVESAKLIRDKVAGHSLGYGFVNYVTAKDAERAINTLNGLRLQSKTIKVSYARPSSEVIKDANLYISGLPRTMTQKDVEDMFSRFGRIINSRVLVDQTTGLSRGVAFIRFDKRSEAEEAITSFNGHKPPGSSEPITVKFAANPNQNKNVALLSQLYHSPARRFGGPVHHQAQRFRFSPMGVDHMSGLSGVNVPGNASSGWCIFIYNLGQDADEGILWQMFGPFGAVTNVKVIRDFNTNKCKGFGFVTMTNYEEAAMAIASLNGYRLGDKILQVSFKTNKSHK
# Chain of Musashi 2 (Msi2) (Q96DH6 whole entry, species assumed): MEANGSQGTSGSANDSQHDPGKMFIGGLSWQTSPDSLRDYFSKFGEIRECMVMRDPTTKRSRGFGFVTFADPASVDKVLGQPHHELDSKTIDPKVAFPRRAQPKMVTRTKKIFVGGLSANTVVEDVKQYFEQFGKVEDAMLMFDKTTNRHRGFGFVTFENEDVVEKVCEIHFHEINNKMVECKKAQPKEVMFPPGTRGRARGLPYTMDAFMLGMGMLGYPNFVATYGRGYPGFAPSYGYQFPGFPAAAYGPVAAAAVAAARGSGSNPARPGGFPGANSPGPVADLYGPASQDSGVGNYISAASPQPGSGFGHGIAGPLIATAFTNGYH
# Chain of Msi1 (O43347 whole entry, species assumed): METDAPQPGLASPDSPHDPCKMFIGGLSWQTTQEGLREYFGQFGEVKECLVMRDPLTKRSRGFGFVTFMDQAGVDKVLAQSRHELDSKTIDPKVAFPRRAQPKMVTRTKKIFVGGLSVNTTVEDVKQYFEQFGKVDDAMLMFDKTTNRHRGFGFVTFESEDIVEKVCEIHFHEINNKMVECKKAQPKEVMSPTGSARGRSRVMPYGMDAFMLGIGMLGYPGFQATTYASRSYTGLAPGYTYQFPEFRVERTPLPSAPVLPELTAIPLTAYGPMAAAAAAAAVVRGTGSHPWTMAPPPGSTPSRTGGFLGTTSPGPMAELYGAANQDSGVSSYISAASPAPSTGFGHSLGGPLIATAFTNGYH
# T3 sequence (Q15717 2-326 limits assumed): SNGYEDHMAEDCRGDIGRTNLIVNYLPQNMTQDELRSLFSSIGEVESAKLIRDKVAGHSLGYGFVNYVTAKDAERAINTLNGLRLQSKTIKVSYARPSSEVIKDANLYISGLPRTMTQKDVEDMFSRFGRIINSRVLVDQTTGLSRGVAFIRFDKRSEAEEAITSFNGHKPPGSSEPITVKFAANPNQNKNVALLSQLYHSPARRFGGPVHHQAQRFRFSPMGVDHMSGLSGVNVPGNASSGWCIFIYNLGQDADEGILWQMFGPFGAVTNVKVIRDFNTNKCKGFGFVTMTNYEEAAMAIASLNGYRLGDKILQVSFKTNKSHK
# T4 sequence (Q15717 2-326 limits assumed): as above
Ki (Msi1) [µM],Ki [8] [µM],Ki [9] [µM],Ki (Musashi 2 (Msi2); [13]) [µM],Compound,IC50 [7] [µM],further results
2.24,0.97,> 20,–,"CC(C)(C)c1ccc(C(=O)Nc2ccc3sc(/C=C/C(=O)O)cc3c2)cc1 [KH-19A, (E)-3-(5-(4-(tert-butyl)benzamido)benzo[b]thiophen-2-yl)acrylic acid]",72.1,IC50 [2]: > 100 µM; IC50 [3]: 80.6 µM; IC50 [4]: 56 µM; IC50 [5]: 78.5 µM; IC50 [6]: > 100 µM; Ki (Musashi 2 (Msi2); [12]): 0.28 µM
–,0.55,7.1,–,"CN(C)c1ccc(C(=O)Nc2ccc3sc(/C=C/C(=O)NO)cc3c2)cc1 [KH-36, (E)-4-(dimethylamino)-N-(2-(3-(hydroxyamino)-3-oxoprop-1-en-1-yl)benzo[b]thiophen-5-yl)benzamide]",4.02,IC50 [2]: 4.89 µM; IC50 [3]: 4 µM; IC50 [5]: 5.74 µM; IC50 [6]: 5.05 µM; Ki (Musashi 2 (Msi2); [12]): 1.5 µM
0.22,0.12,1.64,–,"CN(C)c1ccc(C(=O)Nc2ccc3sc(/C=C/C(=O)O)cc3c2)cc1 [KH-36A, (E)-3-(5-(4-(Dimethylamino)benzamido)benzo[b]thiophen-2-yl)acrylic acid]",> 100,IC50 [2]: > 100 µM; IC50 [3]: 99.9 µM; IC50 [5]: 62.9 µM; IC50 [6]: 98.5 µM; Ki (Musashi 2 (Msi2); [12]): 0.5 µM
> 20,12.5,> 20,–,"CC(C)(C)c1ccc(C(=O)Nc2ccc3[nH]c(C(=O)O)cc3c2)cc1 [KH-39A, 5-(4-(tert-butyl)benzamido)-1H-indole-2-carboxylic acid]",> 100,Ki (Musashi 2 (Msi2); [12]): 22 µM
–,> 20,> 20,> 20,"O=C(Nc1ccc2[nH]c(C(=O)NO)cc2c1)c1ccccn1 [KH-56, N-hydroxy-5-(picolinamido)-1H-indole-2-carboxamide hydrochloride]",75.3,HuR pull-down of target mRNAs [10]: did not provide results statistically distinguishable from vehicle control; ARE^Msi1-Biotin mediated pull-down of HuR protein [11]: did not show pull-down of HuR protein; MDA-MB-231 cell invasion (MDA-MB-231 cells): did not provide a statistically significant difference

# Further lines, the compound ahead of its results:
Compound,Ki (Msi1) [µM],Ki [8] [µM],Ki [9] [µM],Ki (Musashi 2 (Msi2); [13]) [µM],IC50 [7] [µM],further results
"5′-AAAAGAUUUAUUUAUU-3′-fluorescein (3'-fluorescein, further chemistry not given here) [Bcl-2 RNA, Fluorescein labeled 16 nt RNA purchased from Dharmacon]",–,–,–,–,–,Kd [1]: 0.0063 µM
"5′-GCUUUUAUUUAUUUUG-3′-fluorescein (3'-fluorescein, further chemistry not given here) [Msi1 RNA, Fluorescein labeled 16 nt RNA purchased from Dharmacon]",–,–,–,–,–,Kd [1]: 0.002 µM
"5′-UAGUUAUUUUUA UGUC-3′-fluorescein (UAGUUAUUUUUAUGUC; 3'-fluorescein, further chemistry not given here) [XIAP RNA, Fluorescein labeled 16 nt RNA purchased from Dharmacon]",–,–,–,–,–,Kd [1]: 0.0035 µM
"CC(C)(C)C(=O)Nc1ccc2sc(/C=C/C(=O)NO)cc2c1 [KH-20, (E)-N-hydroxy-3-(5-pivalamidobenzo[b]thiophen-2-yl)acrylamide]",> 20,> 20,> 20,> 20,–,IC50 [4]: 3.98 µM
"CC(C)(C)C(=O)Nc1ccc2sc(/C=C/C(=O)O)cc2c1 [KH-20A, (E)-3-(5-pivalamidobenzo[b]thiophen-2-yl)acrylic acid]",> 20,> 20,> 20,> 20,–,IC50 [4]: > 100 µM
"CC(C)c1ccc(C(=O)Nc2ccc3sc(CCC(=O)O)cc3c2)cc1 [KH-37A, 3-(5-(4-Isopropylbenzamido)benzo[b]thiophen-2-yl)propanoic acid]",> 20,> 20,> 20,> 20,> 100,–
CC(C)c1ccc(C(=O)Nc2ccc3sc(CCC(=O)NN)cc3c2)cc1 [KH-37E],> 20,5.18,> 20,> 20,> 100,–
"CN(C)c1ccc(C(=O)Nc2ccc3sc(CCC(=O)O)cc3c2)cc1 [KH-38A, 3-(5-(4-(Dimethylamino)benzamido)benzo[b]thiophen-2-yl)propanoic acid]",> 20,> 20,> 20,> 20,> 100,–
CN(C)c1ccc(C(=O)Nc2ccc3sc(CCC(=O)NN)cc3c2)cc1 [KH-38E],> 20,3.56,> 20,> 20,57.6,–
CN(C)c1ccc(C(=O)Nc2ccc3sc(CCC(=O)NO)cc3c2)cc1 [KH-38],> 20,2.88,> 20,> 20,25.9,–
